Where “and” joins values, the source holds several entries; their conditions need not be identical. Equal entries are not always repeated.
Legend:
NK-1 receptor = target: T1, NK-1 receptor (Meriones unguiculatus, UniProt Q5DUB1); assay: NK-1 agonist (GR73632, icv)-induced foot-tapping behavior in gerbils; format: in vivo; details: gerbil, 0.1 mg/kg po
T1 construct: centrally acting NK-1 receptor antagonist in vivo in the gerbil; from tissue; host or cells: brain of living Mongolian gerbils
Description: Male Mongolian gerbils (Harlan Sprague Dawley, Indianapolis, IN) weighing 26 to 40 grams are administered the selective neurokinin-1 receptor agonist GR73632 (3 pmol) via direct, vertical, free-hand intracerebroventricular (icy) injection to a depth of 4.5 mm below bregma with a cuffed 27-gauge needle attached to a 50 μl Hamilton syringe. Immediately after injection, animals are placed individually into isolated chambers with pressure-sensitive velocimeter platform floors (San Diego Instruments acoustic startle apparatus) that detect and quantify vibration. The San Diego Instruments “SR” DOS-based computer program is used on a PC to record the number of foot-taps over the following 6 to 10 minutes, beginning 30 seconds after the floor is lightly tapped. […] The total number and average intensity of events over the duration is determined. Total number of taps is analyzed with one-way ANOVA and post-hoc Dunnett's test using JMP statistical software.
A dose-response curve (with doses of 0.3, 1, 3 and 10 pmols, icy) is initially generated with the NK-1 agonist GR73632.
NK-1 antagonists are tested for their ability to attenuate GR73632-induced foot tapping. NK-1 antagonists are administered (po) via oral feeding tube at doses and time points specified in each experiment. […]
NK-1 antagonists are administered at multiple doses (at least 3; one dose per animal) and response to GR73632 is measured. […]

[1] = Plasma concentration 2 hours post-dose in beagle dogs; format: in vivo; details: Dog 1-5
Description: All animals are dosed over a period of five (5) weeks, with each dog receiving one of five different treatments on each day of dosing. […] In cases where apomorphine is administered alone, without prior treatment with tradipitant or aprepitant, apomorphine is given at approximately the same time as when given in combination with tradipitant or aprepitant.

motion sickness = assay: Clinical study of motion sickness prevention during sea travel; format: in vivo, human; details: for study participants experiencing vomiting: tradipitant arm 170 mg
Description: A randomized, double blind, placebo-controlled clinical study of motion sickness is conducted, in which 126 human subjects (“study participants”), each having a prior history of motion sickness, are subjected to sea travel in the Pacific Ocean under varied weather conditions. Study participants are distributed over seven (7) four-hour boat trips off the coast of Los Angeles, California, USA. For each trip, sea conditions and participant self-evaluation of symptoms of motion sickness are recorded. Among the seven trips, three are under “rough” sea conditions, conducive to producing motion sickness with wave heights above one meter. The remaining four trips are made under “calm” conditions, with wave heights less than one meter, and are less likely to produce motion sickness. Under “rough” sea conditions, 72.2% of the placebo treated patients experience vomiting compared to only 26.7% under “calm” conditions. Subjects are randomized 1:1 to receive either tradipitant 170 mg or placebo by mouth in a blinded fashion, prior to travel initiation. Participants report their symptoms at predetermined time intervals of every 30 minutes during the travel period using the Motion Sickness Severity Scale (MSSS) and other assessments. Primary end points of the study include: percentage of participants vomiting, and Motion Sickness Severity Scale (MSSS) Worst score. The MSSS is a 7 point scale ranging from 0 (“no symptoms”) to 6 (“vomiting”). An exploratory analysis is also performed to evaluate the effects of tradipitant under “calm” and “rough” seas. In the study described above in Example 3, further analysis is conducted with respect to study participants' ethnic backgrounds, in particular, whether study participants are Hispanic or non-Hispanic, e.g., white (non-Hispanic), Black or African American (non-Hispanic), American Indian and Alaska Native (non-Hispanic), Asian (non-Hispanic), Native Hawaiian and other Pacific Islander (non-Hispanic), some other race (non-Hispanic), or multi-racial (non-Hispanic). Results are analyzed based on study participants' self-reported ethnic backgrounds.

T1 sequence (Q5DUB1 whole entry): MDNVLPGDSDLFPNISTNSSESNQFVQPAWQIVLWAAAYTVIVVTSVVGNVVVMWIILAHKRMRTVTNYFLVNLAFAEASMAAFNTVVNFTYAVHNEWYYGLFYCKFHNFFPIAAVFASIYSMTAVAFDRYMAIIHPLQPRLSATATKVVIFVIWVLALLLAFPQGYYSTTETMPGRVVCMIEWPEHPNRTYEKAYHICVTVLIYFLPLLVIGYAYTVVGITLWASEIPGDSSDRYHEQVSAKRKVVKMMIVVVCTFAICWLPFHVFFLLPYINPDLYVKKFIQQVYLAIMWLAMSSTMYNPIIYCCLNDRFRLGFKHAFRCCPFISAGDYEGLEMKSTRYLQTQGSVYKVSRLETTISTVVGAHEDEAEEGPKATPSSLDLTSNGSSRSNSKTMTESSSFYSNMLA

## O=C(c1ccccc1Cl)c1cccnc1-c1nnn(Cc2cc(C(F)(F)F)cc(C(F)(F)F)c2)c1-c1ccncc1 [Tradipitant, {2-[1-(3,5-bistrifluoromethylbenzyl)-5-pyridin-4-yl-1H-[1,2,3]triazol-4-yl]-pyridin-3-yl}-(2-chlorophenyl)-methanone]
NK-1 receptor
  time after administration up to which foot-tapping behavior is significantly inhibited: up to 7 hours
[1]; 0.3 mg/kg oral
  Concentration of tradipitant in plasma, individual dogs: 90.93 ng/mL and 83.38 ng/mL and 22.59 ng/mL and 51.20 ng/mL and 41.33 ng/mL
[1]; 1.0 mg/kg oral
  Concentration of tradipitant in plasma, individual dogs: 240.84 ng/mL and 100.97 ng/mL and 61.56 ng/mL and 175.58 ng/mL and 86.49 ng/mL
[1]; 3.0 mg/kg oral
  Concentration of tradipitant in plasma, individual dogs: 316.20 ng/mL and 682.91 ng/mL and 119.79 ng/mL and 122.73 ng/mL and 256.58 ng/mL
Motion sickness; Calm Sea, P-value 0.3123
  % Vomiting, Difference placebo vs tradipitant: 8.5%
Motion sickness; Calm Sea, P-value 0.8271
  Worst MSSS, Difference placebo vs tradipitant: −0.09
Motion sickness; Calm Sea, n = 44, 170 mg by mouth, placebo 3.32
  Worst MSSS: 3.4
Motion sickness; Calm Sea, n = 44, 170 mg by mouth, placebo 3.32, listed as tradipitant
  Worst MSSS: 3.40
Motion sickness; Calm Sea, n = 44, 170 mg by mouth, placebo 26.7%
  % Vomiting: 18.2%
Motion sickness; Calm Sea, n = 44, 170 mg by mouth, placebo 26.7%, listed as tradipitant
  % Vomiting: 18.2%
Motion sickness; Hispanic participants, placebo 33.3%
  study participants experiencing vomiting: 4.5%
Motion sickness; ITT, P-value 0.0039
  % Vomiting, Difference placebo vs tradipitant: 22.2%
Motion sickness; ITT, P-value 0.2936
  Worst MSSS, Difference placebo vs tradipitant: 0.35
Motion sickness; ITT, n = 63, 170 mg by mouth, placebo 3.75
  Worst MSSS: 3.40
Motion sickness; ITT, n = 63, 170 mg by mouth, placebo 3.75, listed as tradipitant
  Worst MSSS: 3.4
Motion sickness; ITT, n = 63, 170 mg by mouth, placebo 39.7%
  % Vomiting: 17.5%
Motion sickness; ITT, n = 63, 170 mg by mouth, placebo 39.7%, listed as tradipitant
  % Vomiting: 17.5%
Motion sickness; Rough Sea, P-value 0.0009
  % Vomiting, Difference placebo vs tradipitant: 56.4%
Motion sickness; Rough Sea, P-value 0.0235
  Worst MSSS, Difference placebo vs tradipitant: 1.38
Motion sickness; Rough Sea, n = 19, 170 mg by mouth, placebo 4.57
  Worst MSSS: 3.19
Motion sickness; Rough Sea, n = 19, 170 mg by mouth, placebo 72.2%
  % Vomiting: 15.8%
Motion sickness; Rough Sea, n = 19, 170 mg by mouth, placebo 72.2%, listed as tradipitant
  % Vomiting: 15.8%
Motion sickness; non-Hispanic participants, placebo 42.8%
  study participants experiencing vomiting: 24.4%

Source: patent US20240299373A1, “IMPROVED USE OF TRADIPITANT IN MOTION SICKNESS” (Vanda Pharmaceuticals Inc., priority 2023, published 2024)
